Here are results for one compound from patent US20230391825A1, “ENHANCED SKIN PERMEATION OF A NOVEL PEPTIDE VIA STRUCTURAL MODIFICATION, CHEMICAL ENHANCEMENT, AND MICRONEEDLES” (ESCAPE THERAPEUTICS, INC., priority 2020, published 2023).

Data set [1] is classed as in vitro ADME. An excerpt:
Human dermatomed skin was obtained from Science Care (Arizona, USA). The skin tissues were excised from the thighs of two male cadavers with age at death of 66 and 57. The skin samples used in the study were without identifier and exempted from ethical review. The Integrity of cadaver skin was checked using visual inspection before use to ensure no pores or breaks in the skin surface were present. In addition, any compromise in skin integrity was identified through observation of a rapid and large increase in the amount of permeated peptide through the skin at the first sampling time point.
Franz type diffusion cells were used. Human epidermis was mounted between donor and receptor compartments and excessive skin at the sides was trimmed off to minimize lateral diffusion. SC was faced towards the donor compartment and the skin area for permeation was 1.327 square centimeters. The receptor compartment was filled with 5.5 milliliters of 1 millimolar PBS solution containing 1 percent (volume/volume) antibacterial antimycotic solution. Receptor solution was filtered twice to prevent formation of air bubbles beneath the epidermis. […] Permeation was measured over 24 hours.
The amount of peptide permeated was determined using Shimadzu CBM-20A HPLC system with Agilent ODS C18 column (4.6 millimeters x 250 millimeters x 5 microns, 170 Angstroms). […]

A further data set relates to mushroom tyrosinase. Conditions: cited from earlier work.
In the next data set the target is T1, human tyrosinase (Homo sapiens, UniProt P14679).
T1 sequence (P14679 19-529): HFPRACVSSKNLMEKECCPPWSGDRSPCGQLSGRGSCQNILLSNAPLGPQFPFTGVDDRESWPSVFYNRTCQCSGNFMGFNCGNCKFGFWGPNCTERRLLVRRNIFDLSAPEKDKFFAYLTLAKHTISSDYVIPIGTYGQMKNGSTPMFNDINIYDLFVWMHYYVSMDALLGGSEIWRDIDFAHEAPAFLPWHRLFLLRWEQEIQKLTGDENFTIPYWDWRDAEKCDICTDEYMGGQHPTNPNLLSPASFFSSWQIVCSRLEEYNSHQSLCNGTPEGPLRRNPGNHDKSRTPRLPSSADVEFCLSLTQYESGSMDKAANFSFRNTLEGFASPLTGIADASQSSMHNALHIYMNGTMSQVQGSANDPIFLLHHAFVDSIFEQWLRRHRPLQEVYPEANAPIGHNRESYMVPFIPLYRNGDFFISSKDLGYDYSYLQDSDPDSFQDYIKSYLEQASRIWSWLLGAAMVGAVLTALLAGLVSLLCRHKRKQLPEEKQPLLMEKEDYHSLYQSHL
Conditions: cited from earlier work.

Another data set concerns melasma. Conditions: cited from earlier work.

Peptide text beside a SMILES is read from it.

Turning to `N=C(N)NCCC[C@H](NC(=O)[C@H](CO)NC(=O)[C@H](CCCNC(=N)N)NC(=O)[C@@H](N)Cc1ccc(O)cc1)C(=O)N[C@@H](CCCCN)C(=O)N[C@@H](Cc1ccc(O)cc1)C(=O)N[C@@H](CO)C(=O)N[C@@H](CO)C(=O)N[C@@H](Cc1c[nH]c2ccccc12)C(=O)N[C@@H](Cc1ccc(O)cc1)C(=O)O` [Native peptide, decapeptide-12] (H-YRSRKYSSWY-OH), in data set [1], the “Effect of enhancers on skin permeation” value is reported as “didn't alter skin permeation”. Further, the “Competitive inhibition effect compared with hydroquinone” value in the data set on mushroom tyrosinase and at human tyrosinase was “stronger competitive inhibition effect” in each case. In the data set on melasma (16 weeks of twice daily treatment), the “Efficacy in reducing content of melanin” value was “more than 50%”. The “Safety compared with hydroquinone” value in the data set on melasma (in vivo) was “safer than hydroquinone”. Further, in the data set with melasma (studies on humans, topical), the “Effect in treatment of melasma” value is on record as “good efficacy”.
